Measurements reported in US12070471B2, “Remote loading of sparingly water-soluble drugs into lipid vesicles” (CELATOR PHARMACEUTICALS, INC., priority 2014, dated 2024).

What was measured:
[1] = Aripiprazole loading into ammonium sulfate or sodium sulfate liposomes; assay type: physicochemical; conditions: ratio of ammonium sulfate to sodium sulfate liposomes
Procedure: Liposomes (HSPC/Chol/PEG-DSPE 3/2/0.15 mol/mol/mol) containing 250 mM ammonium sulfate or 250 mM sodium sulfate were diluted in 1 mL of 50 mM citric acid, 10% (wt/wt) sucrose, pH 4.0 to a concentration of 6 mM phospholipid. 0.3 mg of aripiprazole was added from a stock solution of 15 mg/mL in DMSO, so that the final DMSO concentration was 2% (v/v). Fine precipitates were immediately observed after the drug was added to both liposome samples. The samples were heated at 65° C. for 30 min, the cooled on ice. The samples were filtered through a 0.2 um polyethersulfone syringe filter to remove any drug precipitates, followed by purification on a Sephadex G25 column equilibrated with HBS, pH 6.5 to remove any soluble extraliposome drug. The turbid fraction was collected and analyzed for lipid and drug as described above.

[2] = Aripiprazole precipitates from various solvents, absorbance at 600 nm with liposomes; assay type: physicochemical; conditions: drug initially dissolved in DMSO, 1-4-methylpyrrolidone, diethylenemonoethylether or polyethyleneglycol (MW400); 7.5% solvent; 65 C 30 min
Procedure: Aripiprazole was dissolved in a range of solvents indicated below at 4 mg/mL. Liposomes composed of HSPC/Chol/PEG-DSPE (3/2/0.15 mol/mol/mol) that were prepared in 250 mM ammonium sulfate were used and diluted to 6 mM in Hepes buffered sucrose 10% (wt/wt) (HBSuc pH 6.5). 0.3 mg of drug was introduced by slow addition of each solvent while vortexing. The final solvent concentration was 7.5% for all samples. As controls, the drug was added from each solvent to the same volume of HBSuc pH 6.5 without the liposomes. The samples were heated at 65° C. for 30 min then cooled on ice.

O=C1CCc2ccc(OCCCCN3CCN(c4cccc(Cl)c4Cl)CC3)cc2N1 [aripiprazole]
% Efficiency NH4SO4/NaSO4 [1]: 49.3 | clarification of drug precipitate on incubation with liposomes (absorbance at 600 nm) [2]: clarified the drug precipitate
